This is an account of results in patent publication US20240139157A1, “Novel Tubulin Polymerization Inhibitor for Cancer Therapy” (Board of Regents, The University of Texas System, priority 2022, published 2024).

One series relates to MDA-MB-231 cells. As to the kind of experiment: Annexin V assay by flow cytometry (phosphatidylserine externalization). The class given is cell-based. An excerpt: Phosphatidylserine externalization is a cellular process that involves the translocation of phosphatidylserine from the inner leaflet of the cell's plasma membrane to the outer leaflet. The externalization of phosphatidylserine is recognized by other cells as a signal for engulfment and removal without causing inflammation or damage.
The plot illustrated in FIG. 3 was generated by Annexin V assay analyzed by flow cytometry showing the externalization of the phospholipid phosphatidylserine (PS). Treatment of MDA-MB-231 cells with PTA-1 at concentrations of 10 μM and 20 μM for 24 hours induces apoptosis as shown by PS externalization. Each bar represents the average of at least three technical replicates.

In series [1] the test system is HS27 human fibroblasts (non-cancerous). As to the kind of experiment: Differential nuclear staining cytotoxicity assay, HS27. The class given is cell-based. The note with it: HS27 non-cancerous cell line vs cancerous lines. An excerpt: (§1) In this illustrative example, PTA-1 can be identified through compound screening by performing differential nuclear staining assay on acute lymphoblastic leukemia CEM T-cell line. Differential nuclear staining assay measures cell viability using Hoechst 33342 fluorescent stain and propidium iodide dyes that stain all nuclei and dead cell nuclei.
(§2) With reference now to FIG. 2, a table for evaluating cytotoxicity of PTA-1 on different cell lines is depicted in accordance with an illustrative embodiment. In FIG. 2, PTA-1 with chemical structure 100 shown in FIG. 1 is tested to determine cytotoxic activities of PTA-1 on different cell lines.
(§3) In table 200, column 202 indicates the type of cells that are used to test cytotoxic activities of PTA-1, column 204 indicates the cell line used to test cytotoxic activities of PTA-1, column 206 indicates the CC50 values for different cell lines, and column 208 indicates the length of time that different cell lines are exposed to PTA-1. […]
(§4) In this illustrative example, the selective cytotoxicity index value is used to determine if a compound has activity preferentially toward cancer cells. […] The selective cytotoxicity index (SCI) value is calculated by dividing the CC50 of the compound in non-cancerous cells (HS27 human fibroblasts or MCF-10A breast epithelial cells) by the CC50 in cancer cells. […]

In another series the test system is tubulin. In words: Tubulin polymerization kinetics (absorbance at 340 nm). Format: biochemical. An excerpt: FIG. 9 depicts a graph illustrating tubulin polymerization of cells treated with PTA-1 in accordance with an illustrative embodiment. Graph 900 illustrates the kinetic curves of four different treatments for tubulin polymerization.
In this illustrative example, absorbance is directly correlated with tubulin polymerization. Therefore, if polymerization happens, there is an increase in the absorbance at 340 nm. […] In graph 900 tubulin polymerization can be clearly observed from the increasing absorbance after treatment with PTX. In this example, tubulin polymerization for cells treated with PTX drops immediately after 10 minutes.

For series [2], the system named is MCF10A cell line (non-cancerous breast epithelial cells). As to the kind of experiment: Differential nuclear staining cytotoxicity assay, MCF10A. The class given is cell-based. The following applies: MCF10A non-cancerous cell line vs cancerous lines.
Source text: as §1, §2, §3, §4

The next series relates to Jurkat cell line. In words: Differential nuclear staining cytotoxicity assay, Jurkat. Format: cell-based. The following applies: Homo sapiens, read-out: CC50 (50% cytotoxic concentration). An excerpt: In this illustrative example, PTA-1 can be identified through compound screening by performing differential nuclear staining assay on acute lymphoblastic leukemia CEM T-cell line. Differential nuclear staining assay measures cell viability using Hoechst 33342 fluorescent stain and propidium iodide dyes that stain all nuclei and dead cell nuclei. With reference now to FIG. 2, a table for evaluating cytotoxicity of PTA-1 on different cell lines is depicted in accordance with an illustrative embodiment. In FIG. 2, PTA-1 with chemical structure 100 shown in FIG. 1 is tested to determine cytotoxic activities of PTA-1 on different cell lines. In table 200, column 202 indicates the type of cells that are used to test cytotoxic activities of PTA-1, column 204 indicates the cell line used to test cytotoxic activities of PTA-1, column 206 indicates the CC50 values for different cell lines, and column 208 indicates the length of time that different cell lines are exposed to PTA-1. […] In this illustrative example, a lower CC50 value for a cell line indicates a higher level of PTA-1 cytotoxicity, meaning that PTA-1 is more toxic to the cell line.

The subject of another series is MDA-MB-231 cell cycle. In words: Cell cycle analysis. The class given is cell-based. An excerpt:
FIGS. 5A-5D show the percentages of cells that are affected in different phase after treatment of PTA-1.
FIGS. 5A-5D illustrate how PTA-1 alters the progression of the MDA-MB-231 cell cycle. Etoposide is used as a positive control. FIG. 5A illustrates PTA-1 induced DNA fragmentation as denoted in the sub G0/G1 phase.

Series [3] has as its system A549 cell line for lung cancer. In words: Differential nuclear staining cytotoxicity assay, A549. The note with it: A549, among all cancerous cell lines. Format: cell-based.
Source text: as §1, §2, §3, §4

Test in series [4]: as above
Format: cell-based. The note with it: human; CC50 in non-cancerous cells divided by CC50 in A549; read-out: Selective cytotoxicity index (SCI).
Source text: as §1, §2, §3, §4

Series [5] relates to caspase-3 in MDA-MB-231 cells. In words: Caspase-3 activation, NucView 488 substrate, flow cytometry. Format: cell-based. An excerpt:
FIG. 4 depicts a plot illustrating PTA-1 induced caspase-3 activation in accordance with an illustrative embodiment. In FIG. 4, the induction of apoptosis from PTA-1 is corroborated by detecting the activation of the enzyme caspase-3. The fluorogenic reagent NucView 488 caspase-3 substrate was used to detect the activation of caspase 3 via flow cytometry. […] The average of 3 replicates is represented by each bar.
Caspase enzymes are activated during apoptosis and eventually result in DNA cleavage. In this example, caspase-3 is activated after exposure of the MDA-MB-231 cells at a concentration of 10 μM and 20 μM of PTA-1. […] The data shown in FIG. 4 corroborate the induction of apoptosis as the mechanism of cell death.
A general note: A flow cytometer gives signals particle by particle.

Series [6] relates to microtubules and microfilaments of MDA-MB-231 cells. In words: Cytoskeleton imaging by fluorescence microscopy. The class given is cell-based. The following applies: 10 μM, 4 hours. An excerpt: FIG. 8 illustrates alterations in cytoskeletal structures of MDA-MB-231 cells in response to treatment with PTA-1 in accordance with an illustrative embodiment. To test the hypothesis that PTA-1 acts as a tubulin inhibitor, we tested if it could cause alterations in the microtubule organization of MDA-MB-231 cells.
Disruption of cellular microtubules of MDA-MB-231 cells can be assessed by imaging microtubules using fluorescence microscopy.

The subject of the next series is MDA-MB-231 cell line. As to the kind of experiment: Differential nuclear staining cytotoxicity assay, MDA-MB-231. The class given is cell-based. The following applies: MDA-MB-231, among all cancerous cell lines.
Source text: as §1, §2, §3, §4

Test in series [7]: as above
The following applies: human; CC50 in MCF10A divided by CC50 in MDA-MB-231; read-out: Selective cytotoxicity index (SCI). The class given is cell-based.
Source text: as §1, §2, §3, §4

Series [8] is described as follows: Differential nuclear staining cytotoxicity assay, NALM6. The class given is cell-based. The note with it: human; CC50 in non-cancerous cells divided by CC50 in NALM6; read-out: Selective cytotoxicity index (SCI).
Source text: as §1, §2, §3, §4

With `OO` [H2O2, reference compound], in the series on MDA-MB-231 cells (positive control), the “Cell population with phosphatidylserine externalization” value was determined as 49.9%.
`COc1ccc(-c2cnn(CC(=O)Nc3cnn(C)n3)c2)cc1C(F)(F)F` [PTA-1, 2-{4-[4-methoxy-3-(trifluoromethyl)phenyl]-1H-pyrazol-1-yl}-N-(2-methyl-2H-1,2,3-triazol-4-yl)acetamide]: the “Cell population with phosphatidylserine externalization” value in the series with MDA-MB-231 cells (10 μM, 24 hours) was 59.4%; in the series with MDA-MB-231 cells (20 μM, 24 hours), 59.7%. Further, the “Sensitivity to PTA-1 (CC50 comparison)” value is listed as “significantly lower sensitivity” in [1], “significantly lower sensitivity” in series [2], “most sensitive” in series [3] and “least sensitive” in the series on MDA-MB-231 cell line. In addition, the “Absorbance (tubulin polymerization)” value in the series with tubulin (340 nm, after 60 minutes of treatment, DMSO 0.3702) was determined as 0.3247. Further, the “Duration of nucleation phase (absorbance starts increasing)” value with tubulin (absorbance at 340 nm) is on record as “four”. In the series on tubulin (absorbance at 340 nm), the “Kinetic curve of tubulin polymerization compared with DMSO” value was “never reached the absorbance values of cells treated with DMSO”. The “Time to reach steady state of tubulin polymerization” value in the series on tubulin (absorbance at 340 nm) is 20 min. Besides, the CC50 in the series on Jurkat cell line is 320 nM. The figures for the “Cells in the G2/M phase” value in the series on MDA-MB-231 cell cycle (1.25 μM), in the series with MDA-MB-231 cell cycle (2.5 μM) and in the series with MDA-MB-231 cell cycle (5 μM) were 53.25%, 71.5% and 66.47%, respectively. Moreover, the “Cells in the S phase” value with MDA-MB-231 cell cycle (1.25 μM) amounted to 19.8%; with MDA-MB-231 cell cycle (2.5 μM), 15.34%; with MDA-MB-231 cell cycle (5 μM) it was 24.6%. Besides, the “DNA fragmentation (sub G0/G1 phase) vs DMSO and untreated” value with MDA-MB-231 cell cycle (1.25 μM), with MDA-MB-231 cell cycle (2.5 μM) and with MDA-MB-231 cell cycle (5 μM) was “significantly higher rates of DNA fragmentations” in each case. For the same compound, in the series on MDA-MB-231 cell cycle (different concentrations), the “Cells in the G0/G1 phase” value is “did not result in a higher percentage of cells in the G0/G1 phase”. Further, the selectivity ratio in series [4] was determined as 105; in series [7] it was 4.73; in [8] it was 8.65. Moreover, the Caspase-3 activation result in [5] (10 μM) and in [5] (20 μM) was “significantly induced the activation of Caspase 3” each time. The “Microfilament structure (phalloidin-Alexa-568 staining)” value in series [6] is recorded as “remained unaltered”. The “Microtubule organization (α-tubulin-Alexa-488 staining)” value in series [6] is “disrupts the microtubule organization”.
For `CC[C@]1(O)C[C@@H]2CN(CCc3c([nH]c4ccccc34)[C@@](C(=O)OC)(c3cc4c(cc3OC)N(C)[C@H]3[C@@](O)(C(=O)OC)[C@H](OC(C)=O)[C@]5(CC)C=CCN6CC[C@]43[C@@H]65)C2)C1` [Vinblastine, reference compound], in the series with tubulin (absorbance at 340 nm), the “Duration of nucleation phase (absorbance starts increasing)” value is reported as “four” and the “Kinetic curve of tubulin polymerization compared with DMSO” value was “never reached the absorbance values of cells treated with DMSO”.
As for `COc1cc([C@@H]2c3cc4c(cc3[C@@H](O[C@@H]3O[C@@H]5CO[C@@H](C)O[C@H]5[C@H](O)[C@H]3O)[C@H]3COC(=O)[C@H]23)OCO4)cc(OC)c1O` [etoposide, reference compound], in the series with MDA-MB-231 cell cycle (positive control), the “Cells in the G2/M phase” value was 15.4% and the “Cells with DNA fragmentation (sub G0/G1 phase)” value worked out at 28.6%.
For the compound `CC(=O)O[C@H]1C(=O)[C@@]2(C)[C@H]([C@H](OC(=O)c3ccccc3)[C@]3(O)C[C@H](OC(=O)[C@H](O)[C@@H](NC(=O)c4ccccc4)c4ccccc4)C(C)=C1C3(C)C)[C@]1(OC(C)=O)CO[C@@H]1C[C@@H]2O` [paclitaxel, reference compound], in the series with tubulin (absorbance at 340 nm), the “Growth phase of tubulin polymerization” value was “started immediately” and the “Time after which tubulin polymerization drops” value was 10 min.
